Values after ≈ are worked out from the molar mass of the structure shown.

In test [1] the test system is Plasmodium falciparum. The test is described as follows: Antiplasmodial activity against chloroquine-resistant Plasmodium falciparum W2. Format: functional, organism-based.
The subject of test [2] is NCI-H460. The test is described as follows: Cytotoxicity against human NCI-H460 cells. Format: functional, cell-based.
Test [3] deals with MCF7. Put plainly: Cytotoxicity against human MCF7 cells. Format: functional, cell-based.
In test [4] the test system is CCRF-CEM. The test is described as follows: Cytotoxicity against human CCRF-CEM cells. Format: functional, cell-based.
The test system of test [5] is T47D. The test is described as follows: Cytotoxicity against human T47D cells. Format: functional, cell-based.
Test [6] concerns Mycobacterium tuberculosis. Put plainly: Antibacterial activity against Mycobacterium tuberculosis H37Rv at 6.25 ug/ml. Format: functional.

The IC50 is the point on the concentration scale where inhibition reaches its midpoint. `C=C(C)[C@H]([C@@H]1C=C(CCC(C=O)=C(C)C)C(=O)O1)[C@@]1(OC)C=C(C)C(=O)O1` [CAUCANOLIDE A]: the IC50 in test [1] turned out to be 17 µg/mL (≈ 45.4 µM); in test [2], 12.5 µg/mL (≈ 33.4 µM); in test [3], 7.6 µg/mL (≈ 20.3 µM); in test [4], 25.5 µg/mL (≈ 68.1 µM); in test [5], 25.8 µg/mL (≈ 68.9 µM). The compound also showed an Activity in test [6] of 21%.
Take `C=C(C)[C@H]([C@@H]1C=C(CCC(C(=O)/N=C/N(C)C)=C(C)C)C(=O)O1)[C@@]1(OC)C=C(C)C(=O)O1` [CAUCANOLIDE B]: in test [1], the IC50 is at least 50 µg/mL.
Same read-out and setting: the figure for `CO[C@@]1([C@H]2[C@@H](O)C=C(CCC(C=O)=C(C)C)C(=O)OC2(C)C)C=C(C)C(=O)O1` [CAUCANOLIDE C] is at least 50 µg/mL; for `CO[C@]1(/C=C(\C)C[C@@H]2C=C(CCC(C=O)=C(C)C)C(=O)O2)C=C(C)C(=O)O1` [CAUCANOLIDE D] it is 15 µg/mL (≈ 40.1 µM).
Still for that read-out and setting: the same measure for `CO[C@@](C)(/C=C1/C=C(C)C(=O)O1)C[C@@H]1C=C(CCC(C=O)=C(C)C)C(=O)O1` [CAUCANOLIDE E]: at least 50 µg/mL; for `CO[C@](C)(/C=C1/C=C(C)C(=O)O1)C[C@@H]1C=C(CCC(C=O)=C(C)C)C(=O)O1` [CAUCANOLIDE F]: at least 50 µg/mL.

For the origin of these results see ChEMBL document CHEMBL1151269, “Caucanolides A-F, unusual antiplasmodial constituents from a colombian collection of the gorgonian coral Pseudopterogorgia bipinnata” (J Nat Prod, 2005).
